This is an account of results in the NIST ThermoML archive (doi:10.1007/s10765-011-0997-8).

± gives the expanded uncertainty stated by the source.

For this data set the following is noted: 101.33 kPa, Liquid; for speed of sound: Linear variable-path acoustic interferometer; for mass density: Pycnometric method.

For the molecule `Cc1ccccc1C` [1,2-dimethylbenzene], under “298.15 K”, the speed of sound is listed as 1346 ± 2 m/s and the mass density came to 875.9 ± 0.28 kg/m3.

For `c1ccccc1` [benzene], where the note is “298.15 K”, the speed of sound was 1298 ± 3 m/s and the mass density came out at 873.64 ± 0.46 kg/m3.

As to `Cc1ccccc1` [toluene], for the setting “298.15 K”, the speed of sound is 1303 ± 2 m/s and the mass density is listed as 862.22 ± 0.31 kg/m3.

As to `Cc1ccc(C)cc1` [1,4-dimethylbenzene], under “298.15 K”, the speed of sound was determined as 1310 ± 2 m/s and the mass density is recorded as 856.65 ± 0.28 kg/m3.

In the case of `C1CCOCC1` [tetrahydropyran], where the note is “298.15 K”, the speed of sound is reported as 1272 ± 3 m/s. The mass density (308.15 K) stood at 868.81 ± 0.49 kg/m3.

One may read the speed of sound as how fast a sound wave travels through the sample. What is called mass density is the mass of a sample divided by its volume.
